Laboratory results published in ChEMBL document CHEMBL5131540, “Optimizing Shape Complementarity Enables the Discovery of Potent Tricyclic BCL6 Inhibitors” (J Med Chem, 2022).
Values after ≈ are worked out from the molar mass of the structure shown.

Columns and labels:
[1] = Kinetic aqueous solubility of the compound in 4% DMSO/HEPES buffer at pH 8 incubated for 20 hrs by NMR analysis; format: physicochemical; conditions: read-out: Kinetic_solubility
in vitro = conditions: PAMPA, pH 7.4
Description: Permeability of the compound at pH 7.4 by PAMPA

Row | Compound | solubility kinetic at 20 h [1] [µM] | Papp (in vitro) [×10⁻⁶ cm/s]
1 | C[C@@H]1CCOc2c(c3cc(Nc4ccnc(Cl)c4C#N)ccc3n(C)c2=O)N1 | 190 (≈ 75.2 µg/mL) | –
2 | CCNc1cc(=O)[nH]c2ccc(Nc3ccnc(Cl)c3C#N)cc12 | – | < 0.1
